Measured values published in patent US20250230193A1, “CYCLIC COMPOUND HAVING SELECTIVE KRAS INHIBITORY EFFECT ON HRAS AND NRAS” (CHUGAI SEIYAKU KABUSHIKI KAISHA, priority 2022, published 2025).
pIC50, pKd: −log10 of the molar value.

Tests used:
[1] = molecular target: GDP-bound HRAS wild-type protein (Homo sapiens, UniProt P01112); experiment: Binding to HRAS by surface plasmon resonance (SPR), Single Cycle Kinetics; conditions: SPR; KD ratio class
[2] = molecular target: GDP-bound KRAS wild-type protein (Homo sapiens, UniProt P01116); experiment: Binding to KRAS by surface plasmon resonance (SPR), Single Cycle Kinetics; conditions: SPR, Single Cycle Kinetics; GDP-bound KRAS wild-type protein
[3] = molecular target: GDP-bound NRAS wild-type protein (Homo sapiens, UniProt P01111); experiment: Binding to NRAS by surface plasmon resonance (SPR), Single Cycle Kinetics; conditions: SPR; KD ratio class
Chain of GDP-bound NRAS wild-type protein (P01111 whole entry): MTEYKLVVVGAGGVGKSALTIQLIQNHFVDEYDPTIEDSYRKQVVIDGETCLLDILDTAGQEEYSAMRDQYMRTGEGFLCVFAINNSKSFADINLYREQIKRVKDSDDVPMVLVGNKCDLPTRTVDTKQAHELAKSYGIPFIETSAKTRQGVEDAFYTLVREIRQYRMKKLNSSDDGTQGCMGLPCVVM

[4] = tested on: human lung cancer strain NCI-H441; conditions: read-out: NCI-H441 IC50; NCI-H441 cells, 4 days, CellTiter-Glo

Chain of GDP-bound HRAS wild-type protein (P01112 whole entry): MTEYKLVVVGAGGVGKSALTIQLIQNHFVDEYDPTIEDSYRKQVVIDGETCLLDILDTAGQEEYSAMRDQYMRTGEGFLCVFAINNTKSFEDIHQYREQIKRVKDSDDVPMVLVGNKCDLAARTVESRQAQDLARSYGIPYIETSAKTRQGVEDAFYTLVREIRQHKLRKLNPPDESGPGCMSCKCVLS

| Compound | HRAS/KRAS (ratio of KD value for GDP-bound HRAS wild-type protein to KD value for KRAS) [1] | pKd [2] | NRAS/KRAS (ratio of KD value for GDP-bound NRAS wild-type protein to KD value for KRAS) [3] | pIC50 [4] |
| --- | --- | --- | --- | --- |
| CC[C@H](C)[C@@H]1NC(=O)[C@H](CC)N(C)C(=O)C[C@@H](C(=O)N(C)C)N(C)C(=O)[C@H](C2CCCC2)N(C)C(=O)C2(CCC2)NC(=O)[C@@H]2C[C@@H](C(F)(F)F)CN2C(=O)[C@H](CCc2cc(F)c(C(F)(F)F)c(F)c2)NC(=O)CN(C)C(=O)[C@H](CC2CCC(F)(F)CC2)N2CC/C=C\C[C@@H](C2=O)N(C)C(=O)CN(C)C1=O [PP1451] | A (a compound having 10 or more and less than 20 is denoted as A) | 9.85 | A (a compound having 10 or more and less than 20 is denoted as A) | 7.21 |
| C=CC[C@H]1C(=O)N[C@@H]([C@@H](C)CC)C(=O)N(C)CC(=O)N(C)[C@H]2C/C=C\CCN(C2=O)[C@@H](CC2CCC(F)(F)CC2)C(=O)N(C)CC(=O)N[C@@H](CCc2cc(F)c(C(F)(F)F)c(F)c2)C(=O)N2C[C@H](OCC)C[C@H]2C(=O)NC2(CCC2)C(=O)N(C)[C@@H](C2CCCC2)C(=O)N(C)[C@H](C(=O)N(C)C)CC(=O)N1C [PP1454] | A (a compound having 10 or more and less than 20 is denoted as A) | 10.02 | A (a compound having 10 or more and less than 20 is denoted as A) | 7.82 |
| CCO[C@@H]1C[C@H]2C(=O)NC3(CCCC3)C(=O)N(C)[C@@H](C3CCCC3)C(=O)N(C)[C@H](C(=O)N(C)C)CC(=O)N(C)[C@@H](C)C(=O)N[C@@H]([C@@H](C)CC)C(=O)N(C)CC(=O)N(C)[C@H]3C/C=C\CCN(C3=O)[C@@H](CC3CCC(F)(F)CC3)C(=O)N(C)CC(=O)N[C@@H](CCc3cc(F)c(C(F)(F)F)c(F)c3)C(=O)N2C1 [PP1456] | A (a compound having 10 or more and less than 20 is denoted as A) | 9.92 | A (a compound having 10 or more and less than 20 is denoted as A) | 7.05 |
| CC[C@H](C)[C@@H]1NC(=O)[C@H](CC)N(C)C(=O)C[C@@H](C(=O)N(C)C)N(C)C(=O)[C@H](C2CCCC2)N(C)C(=O)C2(CCC2)NC(=O)[C@@H]2C[C@H](C)CN2C(=O)[C@H](CCc2cc(F)c(C(F)(F)F)c(F)c2)NC(=O)CN(C)C(=O)[C@H](CC2CCC(F)(F)CC2)N2CC/C=C\C[C@@H](C2=O)N(C)C(=O)CN(C)C1=O [PP1457] | A (a compound having 10 or more and less than 20 is denoted as A) | 9.82 | A (a compound having 10 or more and less than 20 is denoted as A) | 7.52 |
| CC[C@H](C)[C@@H]1NC(=O)[C@H](CC)N(C)C(=O)C[C@@H](C(=O)N(C)C)N(C)C(=O)[C@H](C2CCCC2)N(C)C(=O)C2(CCC2)NC(=O)[C@@H]2CC(F)(F)CN2C(=O)[C@H](CCc2cc(F)c(C(F)(F)F)c(F)c2)NC(=O)CN(C)C(=O)[C@H](CC2CCCCC2)N2CC/C=C\C[C@@H](C2=O)N(C)C(=O)CN(C)C1=O [PP1462] | A (a compound having 10 or more and less than 20 is denoted as A) | 9.92 | A (a compound having 10 or more and less than 20 is denoted as A) | 7.56 |
| CCO[C@@H]1C[C@H]2C(=O)NC3(CCC3)C(=O)N(C)[C@@H](C3CCCC3)C(=O)N(C)[C@H](C(=O)N(C)C)CC(=O)N(C)[C@@H](CSC)C(=O)N[C@@H]([C@@H](C)CC)C(=O)N(C)CC(=O)N(C)[C@H]3C/C=C\CCN(C3=O)[C@@H](CC3CCCCC3)C(=O)N(C)CC(=O)N[C@@H](CCc3cc(F)c(C(F)(F)F)c(F)c3)C(=O)N2C1 [PP1463] | A (a compound having 10 or more and less than 20 is denoted as A) | 9.89 | A (a compound having 10 or more and less than 20 is denoted as A) | 7.35 |
| CCC[C@H]1C(=O)N[C@@H]([C@@H](C)CC)C(=O)N(C)CC(=O)N(C)[C@H]2C/C=C\CCN(C2=O)[C@@H](CC2CCCCC2)C(=O)N(C)CC(=O)N[C@@H](CCc2cc(F)c(C(F)(F)F)c(F)c2)C(=O)N2C[C@H](OCC)C[C@H]2C(=O)NC2(CCC2)C(=O)N(C)[C@@H](C2CCCC2)C(=O)N(C)[C@H](C(=O)N(C)C)CC(=O)N1C [PP1464] | A (a compound having 10 or more and less than 20 is denoted as A) | 9.82 | A (a compound having 10 or more and less than 20 is denoted as A) | 7.49 |
| CCO[C@@H]1C[C@H]2C(=O)NC3(CCC3)C(=O)N(C)[C@@H](C3CCCC3)C(=O)N(C)[C@H](C(=O)N(C)C)CC(=O)N(C)[C@@H](CC)C(=O)N[C@@H]([C@@H](C)CC)C(=O)N(C)CC(=O)N(C)[C@H]3C/C=C\CCN(C3=O)[C@@H](CC3CCCCC3)C(=O)N(C)CC(=O)N[C@@H](CCc3cc(F)c(C(F)(F)F)c(F)c3)C(=O)N2C1 [PP1466] | A (a compound having 10 or more and less than 20 is denoted as A) | 9.85 | A (a compound having 10 or more and less than 20 is denoted as A) | 7.48 |
| CCO[C@@H]1C[C@H]2C(=O)NC3(CCC3)C(=O)N(C)[C@@H](C3CCCC3)C(=O)N(C)[C@H](C(=O)N(C)C)CC(=O)N(C)[C@@H](CC(C)C)C(=O)N[C@@H]([C@@H](C)CC)C(=O)N(C)CC(=O)N(C)[C@H]3C/C=C\CCN(C3=O)[C@@H](Cc3ccc(F)cc3)C(=O)N(C)CC(=O)N[C@@H](CCc3cc(F)c(C(F)(F)F)c(F)c3)C(=O)N2C1 [PP1488] | B (a compound having 3 or more and less than 10 is denoted as B) | 10.09 | A (a compound having 10 or more and less than 20 is denoted as A) | 7.63 |
| CC[C@H](C)[C@@H]1NC(=O)[C@H](CC2CC2)N(C)C(=O)C[C@@H](C(=O)N(C)C)N(C)C(=O)[C@H](C2CCCC2)N(C)C(=O)C2(CCC2)NC(=O)[C@@H]2C[C@@H](F)CN2C(=O)[C@H](CCc2cc(F)c(C(F)(F)F)c(F)c2)NC(=O)CN(C)C(=O)[C@H](Cc2ccc(C(F)(F)F)cc2)N2CC/C=C\C[C@@H](C2=O)N(C)C(=O)CN(C)C1=O [PP1497] | A (a compound having 10 or more and less than 20 is denoted as A) | 10.66 | A (a compound having 10 or more and less than 20 is denoted as A) | 7.97 |
| CC[C@H](C)[C@@H]1NC(=O)[C@H](CC2CC2)N(C)C(=O)C[C@@H](C(=O)N(C)C)N(C)C(=O)[C@H](C2CCCC2)N(C)C(=O)C2(CCC2)NC(=O)[C@@H]2C[C@@H](C(F)(F)F)CN2C(=O)[C@H](CCc2cc(F)c(C(F)(F)F)c(F)c2)NC(=O)CN(C)C(=O)[C@H](Cc2ccc(C(F)(F)F)cc2)N2CC/C=C\C[C@@H](C2=O)N(C)C(=O)CN(C)C1=O [PP1498] | A (a compound having 10 or more and less than 20 is denoted as A) | 10.16 | A (a compound having 10 or more and less than 20 is denoted as A) | 7.99 |
| CC[C@H](C)[C@@H]1NC(=O)[C@H](CC2CC2)N(C)C(=O)C[C@@H](C(=O)N2CCCC2)N(C)C(=O)[C@H](C2CCCC2)N(C)C(=O)C2(CCC2)NC(=O)[C@@H]2C[C@H](C)CN2C(=O)[C@H](CCc2cc(F)c(C(F)(F)F)c(F)c2)NC(=O)CN(C)C(=O)[C@H](Cc2ccc(C(F)(F)F)cc2)N2CC/C=C\C[C@@H](C2=O)N(C)C(=O)CN(C)C1=O [PP1510] | A (a compound having 10 or more and less than 20 is denoted as A) | 9.96 | AA (a compound having 20 or more is denoted as AA) | 7.46 |
| CC[C@H](C)[C@@H]1NC(=O)[C@H](CC2CC2)N(C)C(=O)C[C@@H](C(=O)N(C)C)N(C)C(=O)[C@H](C2CCCC2)N(C)C(=O)C2(CCCC2)NC(=O)[C@@H]2C[C@H](C)CN2C(=O)[C@H](CCc2cc(F)c(C(F)(F)F)c(F)c2)NC(=O)CN(C)C(=O)[C@H](Cc2ccc(C(F)(F)F)cc2)N2CC/C=C\C[C@@H](C2=O)N(C)C(=O)CN(C)C1=O [PP1511] | A (a compound having 10 or more and less than 20 is denoted as A) | 10.00 | AA (a compound having 20 or more is denoted as AA) | 7.86 |
| CCO[C@@H]1C[C@H]2C(=O)NC3(CC(F)(F)C3)C(=O)N(C)[C@@H](C3CCCC3)C(=O)N(C)C(C3CCCCC3)CC(=O)N(C)[C@@H](COC)C(=O)N[C@@H]([C@@H](C)CC)C(=O)N(C)CC(=O)N(C)[C@H]3C/C=C\CCN(C3=O)[C@@H](Cc3ccc(C(F)(F)F)cc3)C(=O)N(C)CC(=O)N[C@@H](CCc3cc(F)c(C(F)(F)F)c(F)c3)C(=O)N2C1 (stereo partly drawn) [PP1586] | A (a compound having 10 or more and less than 20 is denoted as A) | 9.12 | A (a compound having 10 or more and less than 20 is denoted as A) | 7.07 |
| CCO[C@@H]1C[C@H]2C(=O)NC3(CCC3)C(=O)N(C)[C@@H](C(CC)CC)C(=O)N(C)C(C(C)C)CC(=O)N(C)[C@@H](CC)C(=O)N[C@@H]([C@@H](C)CC)C(=O)N(C)CC(=O)N(C)[C@H]3C/C=C\CCN(C3=O)[C@@H](Cc3ccc(C(F)(F)F)cc3)C(=O)N(C)CC(=O)N[C@@H](CCc3cc(F)c(C(F)(F)F)c(F)c3)C(=O)N2C1 (stereo partly drawn) [PP1589] | A (a compound having 10 or more and less than 20 is denoted as A) | 8.74 | A (a compound having 10 or more and less than 20 is denoted as A) | 7.06 |
